Data reported in US20260232666A1, “COMPOSITIONS AND METHODS FOR INHIBITION OF RAS” (TheRas, Inc., priority 2023, published 2026).
pIC50: −log10 of the molar value.

How the values were obtained:
[1] = molecular target: T1, GDP-loaded KRAS4b (amino acids 1-169) G12C/C118S protein (Homo sapiens, UniProt P01116, C118S/G12C); experiment: Covalent cysteine 12 modification by MALDI-TOF MS, GDP-loaded KRAS G12C; format: binding; conditions: 15 minutes reaction time point
T1 construct: KRAS4b (amino acids 1-169) G12C/C118S protein; made in house
Method: (§1) Biological Example 1: Covalent Cysteine 12 Modification Analysis Using Matrix Assisted Laser Desorption Ionization-Time of Flight Mass Spectrometry (MALDI-TOF MS)
(§2) MALDI-TOF MS analysis was performed using 1 μM protein (KRAS G12C), and 1:2.5 protein to compound ratio.
(§3) Reaction: 1 μM of GppNHp, GTP, or GDP-loaded KRAS4b (amino acids 1-169) G12C/C118S protein (produced in-house by Protein Expression Laboratory, FNLCR/Leidos Biomed) in 20 mM 4-(2-hydroxyethyl)-1-piperazineethanesulfonic acid (HEPES) buffer containing 150 mM NaCl, 1 mM MgCl2, pH 7.3 was prepared freshly before assay. Twelve-μL aliquots of protein were dispensed onto low volume 384-well plate, then 30 nL of tested compounds from 1 mM DMSO stocks were added to appropriate wells using ECHO 555 acoustic liquid handler (Labcyte Inc.). For each reaction/assay, three blanks were prepared by mixing 12 μL of protein solution with 30 nL DMSO. The contents of the wells were carefully mixed by aspiration, and then each plate was sealed with an adhesive cover, centrifuged at 2000 g for 1 minute, and kept in the dark at room temperature until 5 min, 15 min, 30 min, 2 h, or 6 h collections.
(§4) Target pretreatment: Before each assay MALDI target (Bruker MPT 384 ground steel BC) was pre-treated by pipetting on each spot 0.75 μL of saturated sinapinic acid in acetonitrile (ACN).
(§5) Sample preparation: At collection time point, 2 μL of reaction mixtures were pipetted out into 15 μL MALDI matrix solution (saturated solution of sinapinic acid in 1:1 ACN:water solution containing 0.75% trifluoroacetic acid (TFA)) deposited on 384 well polypropylene plate. Resulting solution was mixed by aspiration, centrifuged at 2000 g for 1 minute, then 1.5 μL aliquots were dispensed on pre-treated MALDI target using Beckman Coulter Biomek FXP 96/384-Span-8 Laboratory Automation Workstation. Finally, the MALDI target was dried under mild vacuum to produce spots with fine crystalline structure.
(§6) Measurements: MALDI-TOF measurements were performed on a Bruker Daltonics rapiflex Tissuetyper TOF-TOF mass spectrometer using linear mode and mass range from 18.6 to 21.6 kDa. Detector gain was set to 3.3×(483 V), sample rate to 5 GS/s, real time smoothing to medium (175 MHz), laser smart beam pattern was set to: “MS Thin Layer M5”, and the laser frequency was 10000 Hz. Spectra were automatically collected using custom AutoXecute method. Laser power was auto adjusted using fuzzy control. The peak selection range was set to be between 19000 and 21500 Da. Peak evaluation uses half width parameter set to be smaller than 40 Da for processed spectrograms (centroid peak detection; smoothed by SavitzkyGolay algorithm using 7 m/z width and 2 cycles; baseline was subtracted using median algorithm with flatness 1 and median level 0.01). Fuzzy control used Proteins/Oligonucleotides protocol with minimum half width 1/10 times above threshold. Up to 40000 satisfactory shots were collected in 10000 shot steps. Dynamic termination was implemented to finish data collection when peak signal/noise ratio was reaching value of 50.
(§7) Spectra processing: Spectra were smoothed by SavitzkyGolay algorithm using 7 m/z width and three cycles. Centroid peak detection algorithm was used with signal to noise threshold set to 6, relative intensity threshold 4%, peak width 10 m/z and median baseline subtraction using flatness of 1 and median level of 0.01. Peak intensity and area under the peak were evaluated and recorded for all peaks between 19,300 Da and 21,550 Da.
(§8) Calculation of percent modification: Percent modification was calculated as a ratio of peak height for protein modified by compound to sum of peak height of remaining protein plus peak height for protein modified by compound. If multiple modifications were observed each was calculated as a ratio of peak height for given modification versus sum of peak heights for all observed protein species. Data reported in Table 4 are from 15 minutes reaction time point. […]

[2] = molecular target: T2, GppNHp-loaded KRAS4b (amino acids 1-169) G12C/C118S protein (Homo sapiens, UniProt P01116, C118S/G12C); experiment: Covalent cysteine 12 modification by MALDI-TOF MS, GppNHp-loaded KRAS G12C; format: binding; conditions: 15 minutes reaction time point
T2 construct: KRAS4b (amino acids 1-169) G12C/C118S protein; made in house
Method: as §1, §2, §3, §4, §5, §6, §7, §8

pERK in NCI-H358 cells = experiment: Cell-based pERK HTRF assay (pERK inhibition in H358 cells); conditions: 30 min incubation
Method: Biological Example 3: Cell-Based pERK HTRF Assay
pERK assays (Perkin Elmer) were used to determine the effectiveness of compounds of the present disclosure in disrupting KRAS G12C protein/effector signaling in cells.
On Day 1, cells (NCI-H358) were seeded into 96-well plates at 4×10^4 cells/well in complete growth media (RPMI, 10% FBS).
On Day 2, cells were treated with compounds at 0.25% DMSO. The source plate was created with compounds diluted in media at 5-fold the final assay concentration. The compounds were run in a 9-point concentration curve starting at 75 μM, with a 3-fold dilution between concentrations. 20 μL was transferred onto the cell plates (final volume in wells was 100 μL). Plates were harvested after 30 min incubation by aspirating media and adding kit-supplied 1× supplemented lysis buffer to all wells (75 μl per well). Plates were then placed on a plate shaker and incubated at 850 rpm for an additional 30 min.
Antibody mixture solution was prepared by diluting aliquoted d2 and Eu Cryptate antibodies 1:20 in kit supplied detection buffer, then mixed the diluted antibodies solutions (1:1 v:v). 4 μL of this solution was then added to a 384-well detection plate (Perkin Elmer; 6008230).
Samples were homogenized by pipetting up and down and then transferred (16 μL of cell lysates) from the 96-well cell culture plate to two wells of the HTRF 384-well detection plate containing the antibody solution. Plates were centrifuged (524 g for […]) and allowed to incubate between 4 and 24 h at room temperature. Maximum signal is reached after 4 h incubation time and remains stable over a period of 24 hours. Therefore, readings can be made between 4 and 24 h of incubation. Plates were centrifuged again (524 g for 1 min), and analyzed on the En Vision plate reader using the following settings: Excitation 320 nm, Bandwidth 75 nm; Emission 615 nm, Bandwidth 85 nm; Gain 100%; Flashes 100; Lag 60 μs.
The percent of modification of GppNHp, GTP, or GDP loaded KRAS G12C by MALDI-TOF MS, biochemical Raf1 RBD-KRAS G12C-GppNHp disruption assay IC50, and pERK inhibition IC50 of selected compounds described herein are shown in Table 4. For percent of modification at 15 minutes (MALDI-TOF MS) of GppNHp, GTP, or GDP loaded KRAS G12C: A: percent of modification ≥70%; B: 50≤percent of modification <70%; C: 10%≤percent of modification <50%; D: percent of modification <10%. […] For pERK inhibition in H358 cell assay: A: IC50≤0.1 μM; B: 0.1 μM<IC50≤1 μM; C: IC50>1 μM. Blanks in the table represent that compound was not tested in the indicated assay.

[3] = molecular target: T3, GTP-loaded KRAS4b (amino acids 1-169) G12C/C118S protein (Homo sapiens, UniProt P01116, C118S/G12C); experiment: Covalent cysteine 12 modification by MALDI-TOF MS, GTP-loaded KRAS G12C; format: binding; conditions: 15 minutes reaction time point
T3 construct: KRAS4b (amino acids 1-169) G12C/C118S protein; made in house
Method: as §1, §2, §3, §4, §5, §6, §7, §8

Compound	GDP-KRAS G12C percent of modification [1]	GppNHp-KRAS G12C percent of modification [2]	pIC50 (pERK in NCI-H358 cells)	GTP-KRAS G12C percent of modification [3]	pIC50 (pERK in NCI-H358 cells; Homo sapiens, NCI-H358, 0.5 h)
C[C@@H]1[C@H](N(C)c2nc(OC[C@@]34CCCN3C[C@H](F)C4)nc3c(F)c(-c4ccc(F)c5sc(N)c(C#N)c45)c(C(F)(F)F)cc23)CCN1C(=O)[C@H](F)Cl (atropisomer, axis not shown; (aS)) [Compound 183, 2-amino-4-((S)-4-(((2R,3R)-1-((R)-2-chloro-2-fluoroacetyl)-2-methylpyrrolidin-3-yl)(methyl)amino)-8-fluoro-2-(((2R,7aS)-2-fluorotetrahydro-1H-pyrrolizin-7a(5H)-yl)methoxy)-6-(trifluoromethyl)quinazolin-7-yl)-7-fluorobenzo[b]thiophene-3-carbonitrile]	A (percent of modification ≥70%)	A (percent of modification ≥70%)	> 7.00	A (percent of modification ≥70%)	–
CCN(c1nc(OC[C@@H]2C[C@@H](OC)CN2C)nc2c(F)c(-c3ccc(F)c4sc(N)c(C#N)c34)c(C(F)(F)F)cc12)[C@@H]1CCN(C(=O)[C@@H](F)Cl)[C@@H]1C [Compound 178]	D (percent of modification <10%)	D (percent of modification <10%)	–	D (percent of modification <10%)	6.00 to 7.00
CCN(c1nc(OC[C@@H]2C[C@@H](OC)CN2C)nc2c(F)c(-c3ccc(F)c4sc(N)c(C#N)c34)c(C(F)(F)F)cc12)[C@@H]1CCN(C(=O)[C@H](F)Cl)[C@@H]1C [Compound 179]	C (10%≤percent of modification <50%)	B (50≤percent of modification <70%)	–	C (10%≤percent of modification <50%)	> 7.00
C[C@@H]1CN(c2nc(OC[C@@]34CCCN3C[C@H](F)C4)nc3c(F)c(-c4ccc(F)c5sc(N)c(C#N)c45)c(C(F)(F)F)cc23)[C@@H](C)CN1C(=O)[C@@H](F)Cl [Compound 180]	C (10%≤percent of modification <50%)	D (percent of modification <10%)	–	D (percent of modification <10%)	> 7.00
C[C@@H]1CN(c2nc(OC[C@@]34CCCN3C[C@H](F)C4)nc3c(F)c(-c4ccc(F)c5sc(N)c(C#N)c45)c(C(F)(F)F)cc23)[C@@H](C)CN1C(=O)[C@H](F)Cl [Compound 181]	D (percent of modification <10%)	D (percent of modification <10%)	–	D (percent of modification <10%)	6.00 to 7.00
CCN(c1nc(OC[C@@]23CCCN2C[C@H](F)C3)nc2c(F)c(-c3ccc(F)c4sc(N)c(C#N)c34)c(C(F)(F)F)cc12)[C@H]1CCN(C(=O)[C@@H](F)Cl)C1 [Compound 186]	C (10%≤percent of modification <50%)	C (10%≤percent of modification <50%)	–	B (50≤percent of modification <70%)	> 7.00
CCN(c1nc(OC[C@@]23CCCN2C[C@H](F)C3)nc2c(F)c(-c3ccc(F)c4sc(N)c(C#N)c34)c(C(F)(F)F)cc12)[C@H]1CCN(C(=O)[C@H](F)Cl)C1 [Compound 187]	B (50≤percent of modification <70%)	B (50≤percent of modification <70%)	–	B (50≤percent of modification <70%)	> 7.00
C[C@@H]1[C@H](N(C)c2nc(OC[C@@]34CCCN3C[C@H](F)C4)nc3c(F)c(-c4ccc(F)c5sc(N)c(C#N)c45)c(C(F)(F)F)cc23)CCN1C(=O)/C=C/c1nc(C(C)(F)F)no1 [Compound 188, 2-amino-4-(4-(((2R,3R)-1-((E)-3-(3-(1,1-difluoroethyl)-1,2,4-oxadiazol-5-yl)acryloyl)-2-methylpyrrolidin-3-yl)(methyl)amino)-8-fluoro-2-(((2R,7aS)-2-fluorotetrahydro-1H-pyrrolizin-7a(5H)-yl)methoxy)-6-(trifluoromethyl)quinazolin-7-yl)-7-fluorobenzo[b]thiophene-3-carbonitrile]	B (50≤percent of modification <70%)	B (50≤percent of modification <70%)	–	C (10%≤percent of modification <50%)	> 7.00
CO[C@@H]1C[C@@H](COc2nc(N(C)[C@@H]3CCN(C(=O)/C=C/c4nc(C(C)(F)F)no4)[C@@H]3C)c3cc(C(F)(F)F)c(-c4ccc(F)c5sc(N)c(C#N)c45)c(F)c3n2)N(C)C1 [Compound 189]	B (50≤percent of modification <70%)	B (50≤percent of modification <70%)	–	C (10%≤percent of modification <50%)	> 7.00
